Among the test systems are A498 renal; CCRF-CEM leukemia; HOP-62 NSCLC; K-562 leukemia; KM12 colon; MCF7 breast; SNB-75 CNS; SW-620 colon.
Experiment in all cases: NCI-60 cell line screen, 48 h

Molecules are shown by their SMILES.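 Cells were grown in 96-well plates and exposed to each compound for 48 hours at five concentrations; endpoints were interpolated linearly between bracketing concentrations, or set to the highest concentration if not reached. GI50 is the concentration that inhibits growth by half. TGI is the concentration that stops growth completely.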

Take `COc1cc(/C=C2\CC3C4CC=C5C[C@@H](OC(C)=O)CC[C@]5(C)C4CC[C@]3(C)C2=O)ccc1OCCN1CCCCC1` (stereo partly drawn): the GI50 was 1.71 µM with A498 renal; 1.25 µM with CCRF-CEM leukemia; 12.1 µM in the assay with HOP-62 NSCLC; 1.23 µM in the assay on K-562 leukemia; 1.99 µM with KM12 colon; 2.07 µM in the assay with MCF7 breast. The GI50 was 27.3 µM with SNB-75 CNS and 3.18 µM with SW-620 colon. In addition, the TGI in the assay on A498 renal stood at 5.07 µM; in the assay on CCRF-CEM leukemia, 3.35 µM; in the assay on HOP-62 NSCLC, 25.9 µM; in the assay on K-562 leukemia, 3.31 µM; in the assay on KM12 colon, 4.27 µM; in the assay with MCF7 breast, 5.53 µM. Besides, the values for the TGI in the assay on SNB-75 CNS and in the assay on SW-620 colon were 56.9 µM and 7.32 µM, respectively.
Take `COc1ccc(Nc2nc3cc(N)cc(N)c3nc2-c2ccccc2)cc1`: the GI50 with CCRF-CEM leukemia was 12 µM; in the assay with HOP-62 NSCLC it was 27.6 µM; with K-562 leukemia it was 29.8 µM; in the assay on KM12 colon, 15.9 µM; with MCF7 breast, 14.9 µM; in the assay on SNB-75 CNS, 14.6 µM. Further, in the assay on SW-620 colon, the GI50 is 22.5 µM. Moreover, the TGI was > 100 µM in the assay on CCRF-CEM leukemia; > 100 µM with HOP-62 NSCLC; > 100 µM with K-562 leukemia; 30.9 µM in the assay with KM12 colon; 28.1 µM in the assay with MCF7 breast; 42.6 µM in the assay on SNB-75 CNS. Further, the TGI with SW-620 colon worked out at 37 µM.
Turning to `C=C(c1ccc(OC)c(/C=C/C(=O)c2ccc3c(c2)OCO3)c1)c1cc(OC)c(OC)c(OC)c1`, the GI50 is 2.72 µM in the assay on A498 renal; 0.916 µM in the assay on CCRF-CEM leukemia; 4.16 µM in the assay with HOP-62 NSCLC; 0.783 µM with K-562 leukemia; 0.913 µM in the assay with MCF7 breast; 1.64 µM with SNB-75 CNS. Also, the TGI is > 100 µM with A498 renal; > 100 µM in the assay on CCRF-CEM leukemia; > 100 µM with HOP-62 NSCLC; 13.9 µM with K-562 leukemia; > 100 µM in the assay on MCF7 breast; 7.08 µM in the assay with SNB-75 CNS.
Take `CCOC(=O)Cc1c(C)c2cc(C(=O)c3ccccc3)c(O)cc2oc1=O`: the TGI in the assay with A498 renal is 80.2 µM; with CCRF-CEM leukemia, > 100 µM; in the assay with HOP-62 NSCLC, > 100 µM; in the assay on K-562 leukemia it was 71.8 µM; in the assay with MCF7 breast, 63.9 µM; with SNB-75 CNS, 74.7 µM. Further, the TGI with SW-620 colon was > 100 µM.
Take `OCC1C(OCc2ccccc2)C(OCc2ccccc2)C(OCc2ccccc2)CN1Cc1ccccc1` (stereo not drawn): the TGI in the assay with CCRF-CEM leukemia is > 100 µM; with HOP-62 NSCLC, > 100 µM; with K-562 leukemia it was > 100 µM; with KM12 colon, > 100 µM; in the assay with MCF7 breast, 43.9 µM; with SNB-75 CNS it was 31.2 µM. Moreover, the TGI in the assay on SW-620 colon was > 100 µM.
Regarding `COc1ccc(C2(Cl)c3ccccc3N(c3ccccc3)c3ccccc32)cc1`, the GI50 in the assay on CCRF-CEM leukemia is 1.99 µM; in the assay with HOP-62 NSCLC it was 0.411 µM; with K-562 leukemia it was 0.335 µM; in the assay on KM12 colon, 1.18 µM; in the assay on MCF7 breast it was 0.182 µM; in the assay with SNB-75 CNS it was 0.359 µM. Besides, the GI50 in the assay on SW-620 colon is 0.37 µM. Besides, the TGI came to 13.8 µM in the assay with CCRF-CEM leukemia; 2.76 µM with HOP-62 NSCLC; 12 µM in the assay with K-562 leukemia; 5.54 µM in the assay on KM12 colon; 1.9 µM in the assay on MCF7 breast; 2.05 µM with SNB-75 CNS. In the assay on SW-620 colon, the TGI was determined as 1.69 µM.
Consider `OC(CNc1ccnc2cc(Cl)ccc12)CNc1ccnc2cc(Cl)ccc12`, for which the GI50 with A498 renal was 11 µM; with HOP-62 NSCLC, 3.17 µM; in the assay on SNB-75 CNS it was 1.5 µM; in the assay on SW-620 colon, 1.66 µM. Also, the TGI came to 25.3 µM in the assay on A498 renal, 14.7 µM in the assay with HOP-62 NSCLC, 3.03 µM in the assay on SNB-75 CNS and 3.21 µM with SW-620 colon.
Turning to `CC1Cc2c(Cl)ncnc2N(C)c2ccc(Cl)cc21` (stereo not drawn), the GI50 is 0.24 µM in the assay with A498 renal; 0.51 µM with CCRF-CEM leukemia; 0.339 µM in the assay with HOP-62 NSCLC; 0.496 µM with K-562 leukemia; 0.0795 µM in the assay with SNB-75 CNS; 0.335 µM in the assay on SW-620 colon. The TGI in the assay on A498 renal is 0.547 µM; with CCRF-CEM leukemia it was > 100 µM; in the assay on HOP-62 NSCLC, 11.1 µM; with K-562 leukemia it was > 100 µM; in the assay with SNB-75 CNS, > 100 µM; in the assay with SW-620 colon, 4.74 µM.
On to `Cc1cnc2n1S(=O)(=O)c1cc(C(=O)Nc3cccc4nsnc34)c(Cl)cc1S2`, for which the GI50 in the assay with A498 renal was 13.8 µM; in the assay on HOP-62 NSCLC it was 20.1 µM; in the assay with K-562 leukemia it was 40.8 µM; in the assay with KM12 colon, 17.6 µM; with MCF7 breast it was 16.4 µM; in the assay on SNB-75 CNS, 25.6 µM. The GI50 in the assay on SW-620 colon is 19.1 µM. The TGI in the assay on A498 renal was 34.8 µM; in the assay on HOP-62 NSCLC, 35.8 µM; with K-562 leukemia, > 100 µM; in the assay with KM12 colon, 33.4 µM; in the assay with MCF7 breast, 32.2 µM; in the assay on SNB-75 CNS, 62.3 µM. Further, in the assay with SW-620 colon, the TGI was found to be 37.2 µM.
`O=C(NCCCCN1CCOCC1)c1cc2ccccc2o1`: the GI50 in the assay with A498 renal, in the assay with HOP-62 NSCLC, in the assay with K-562 leukemia, with KM12 colon, in the assay with MCF7 breast and in the assay with SNB-75 CNS was > 100 µM in each case. For the same compound, the GI50 in the assay with SW-620 colon is > 100 µM. The TGI in the assay with A498 renal, with HOP-62 NSCLC, in the assay with K-562 leukemia, in the assay with KM12 colon, with MCF7 breast and in the assay on SNB-75 CNS was > 100 µM each time. The TGI in the assay on SW-620 colon is > 100 µM.
For the compound `Cc1c(C)n(CCCN2CCN(C)CC2)c2ccc(Oc3cccc(C(=O)N4CCN(CCc5ccc(F)cc5)CC4)c3)cc12`, the GI50 was 1.63 µM in the assay on HOP-62 NSCLC; 1.93 µM in the assay on KM12 colon; 1.59 µM in the assay on MCF7 breast; 1.39 µM in the assay on SNB-75 CNS; 1.77 µM in the assay on SW-620 colon. Moreover, the TGI with HOP-62 NSCLC was 3.34 µM; in the assay on KM12 colon, 3.64 µM; in the assay on MCF7 breast, 3.22 µM; in the assay on SNB-75 CNS it was 2.85 µM; in the assay with SW-620 colon it was 3.28 µM.
`O=c1c2ccccc2sc2c(NCCCNCCO)nc3ccccc3c12`: the GI50 in the assay on CCRF-CEM leukemia is 1.59 µM; in the assay with HOP-62 NSCLC it was 1.34 µM; in the assay on KM12 colon, 1.77 µM; with SNB-75 CNS it was 1.64 µM; in the assay on SW-620 colon, 1.31 µM. Moreover, the TGI with CCRF-CEM leukemia came out at 3.57 µM; in the assay on HOP-62 NSCLC it was 2.82 µM; in the assay on KM12 colon, 3.48 µM; in the assay with SNB-75 CNS, 4.32 µM; in the assay with SW-620 colon it was 2.74 µM.
`CCc1cccc(C(C)C)c1NC(=O)C(=O)C1C(=O)Nc2ccccc2S1=O` (stereo not drawn): the TGI in the assay with A498 renal, with CCRF-CEM leukemia, in the assay on HOP-62 NSCLC, in the assay on KM12 colon, with MCF7 breast and in the assay on SNB-75 CNS was > 100 µM throughout. Also, the TGI in the assay with SW-620 colon was > 100 µM.
Consider `Cc1nc([N+](=O)[O-])cn1-c1nc2ccccn2c1[N+](=O)[O-]`, for which the TGI was > 100 µM in the assay on A498 renal; > 100 µM in the assay on HOP-62 NSCLC; > 100 µM in the assay with K-562 leukemia; > 100 µM in the assay with KM12 colon; > 100 µM in the assay on MCF7 breast; 63.7 µM with SNB-75 CNS. For the same compound, in the assay on SW-620 colon, the TGI was > 100 µM.
`CCOC(=O)c1cc(C(=O)c2ccc(OC)cc2)n2ccc(/C=C/c3cc[n+](CC(=O)c4ccc(OC)cc4)cc3)cc12`: the GI50 in the assay with HOP-62 NSCLC was 3.4 µM; with K-562 leukemia, 0.567 µM; in the assay with MCF7 breast, 1.51 µM; with SW-620 colon, 1.72 µM. Further, the TGI stood at 36.8 µM in the assay with HOP-62 NSCLC, 3.31 µM in the assay on K-562 leukemia, 3.56 µM with MCF7 breast and 4.02 µM in the assay with SW-620 colon.
As to `O=C1NC(=C(Cl)Cl)/C(=N/S(=O)(=O)N2CCCCC2)N1`, the GI50 with A498 renal is 12.4 µM; in the assay on CCRF-CEM leukemia, 2.19 µM; with HOP-62 NSCLC, 2.92 µM; with KM12 colon, 0.499 µM; in the assay on MCF7 breast, 2.87 µM; in the assay on SNB-75 CNS, 1.76 µM. In the assay with SW-620 colon, the GI50 is 2.11 µM. Further, the TGI in the assay with A498 renal was 25.4 µM; in the assay with CCRF-CEM leukemia it was 4.92 µM; in the assay on HOP-62 NSCLC, 9.07 µM; in the assay with KM12 colon it was 10.3 µM; in the assay on MCF7 breast it was > 100 µM; in the assay on SNB-75 CNS it was 3.77 µM. The TGI in the assay with SW-620 colon worked out at 4.17 µM.
As for `O=C(CSc1nc2c(n1Nc1ccccc1)-c1ccccc1SC2)Nc1nc(-c2ccc(Cl)cc2)cs1`, the GI50 in the assay on A498 renal was 6.44 µM; in the assay with HOP-62 NSCLC it was 14 µM; in the assay with KM12 colon it was > 100 µM; with MCF7 breast it was > 100 µM; in the assay with SNB-75 CNS, 9.23 µM. For the same compound, the TGI in the assay with A498 renal was 32.8 µM; with HOP-62 NSCLC, 34 µM; in the assay on KM12 colon it was > 100 µM; with MCF7 breast, > 100 µM; with SNB-75 CNS, 23.8 µM.
As for `COc1ccc(C(=O)C(CN(C)C)CN(C)C)cc1`, the GI50 in the assay with A498 renal was 18.6 µM; with CCRF-CEM leukemia, 1.39 µM; in the assay with HOP-62 NSCLC, 17.8 µM; in the assay with KM12 colon it was 11.9 µM; in the assay on MCF7 breast, 2.73 µM; in the assay with SNB-75 CNS, 11.4 µM. In addition, in the assay with SW-620 colon, the GI50 was 1.78 µM. Further, the TGI in the assay with A498 renal came out at 32.7 µM; in the assay on CCRF-CEM leukemia, 5.13 µM; in the assay on HOP-62 NSCLC, 32.9 µM; with KM12 colon it was 27.3 µM; in the assay with MCF7 breast, 12.3 µM; in the assay with SNB-75 CNS it was 26.5 µM. Also, in the assay with SW-620 colon, the TGI worked out at 3.98 µM.
